Data: US9072751B2, “Na/K-ATPase ligand” (priority 2006, dated 2015)

Experiments:
[1] = tested on: left ventricular cardiac tissue; assay: Cardiac tissue fibrosis, immunohistochemistry and Western blot after MBG infusion; type: in vivo, Sprague-Dawley rats
Experimental: (§1) Briefly, Sprague-Dawley rats weighing.apprxeq.250 g at the time of surgery were subjected to either sham surgery with no MBG infusion (Sham), sham surgery with placement of a minipump infusing MBG at 10 μg/kg per day (MBG), PNx, and PNx after immunization against MBG (PNx-IM). MBG of extremely high purity (>99%) was isolated from the venom of Bufa marinas by Kennedy et al. In addition to these maneuvers, a group of PNx animals was subjected to adrenalectomy as well (PNx-ADx).
(§2) (determined after extraction on a C-18 column using DELPHIA as described previously), aldosterone (determined with ELISA kit 10004377, Cayman Chemical) and cardiac immunohistochemistry (vida infra) were assessed 4 weeks after surgery.
Western blot analysis was performed on protein isolated from tissue homogenates, cell culture whole cell lysates, or nuclear extracts as described previously.
Immunization against MBG attenuated these increases. Western blot analysis confirmed that PNx and MBG had 2 to 2.5 times the expression of procollagin-1 and a smooth muscle actin seen with sham-operated controls, whereas PNx-IM expression of both procollagen-1 and a smooth muscle actin was substantially less than that seen with PNx.
Other data includes a representative pressure-volume loops obtained during vena cava occlusion from rats subjected to sham surgery (Sham), PNx, MBG infusion (MBG), and PNx after immunization against an MBG-albumin conjugate (PNx-IM). Regression lines fit to the end systolic pressure volume relationship (ESPVR, dotted line) and the end diastolic pressure volume relationship (EDPVR, solid line). B, ventricular cross-sectional areas determined from trichrome stains of tissue obtained from Sham, PNx, MBG, and PNx-IM animals (each group: N=8 animals, .apprxeq.100 measurements averaged to determine mean for each animal; data shown as the group mean.+−.SEM using N−8). Representative immunohistochemistry images of cardiac tissues stained for (c) collagen-1 and (d) a smooth muscle actin (aSMA). Counterstain for both c and d was hematoxlyn. Western blot and corresponding densitometric analysis for (e) procollagen-1 and (f) aSMA. Note that both collagen-1 and aSMA staining are much more intense in the PNx and MBG groups compared with Sham, whereas the PNx-IM staining is similar to Sham. Similarly, procollagen and aSMA expression are substantially higher in PNx and MBG animals compared with Sham, whereas immunization against MBG (PNx-IM) attenuated the changes seen with PNx. Data for e and f are derived from N=6 experiments in each group and shown as mean.+−.SEM. Sham refers to hearts isolated from control animals, PNx refers to PNx, MBG refers to MBG supplemented, and PNx-IM refers to animals immunized against MGB before PNx surgery. *P<0.05, **P<0.01 vs Sham, #P<0.01 vs PNx.

[2] = Plasma MBG and aldosterone 4 weeks after MBG minipump infusion in rats; type: in vivo, Sprague-Dawley rats; conditions: mean ± SEM
Experimental: (§3) Male, Sprague-Dawley rats were used for all of the studies. All of the animal experimentation described in the article was conducted in accordance with the National Institutes of Health Guide for the Care and use of Laboratory Animals using protocols approved by the Medical University of Ohio Institutional Animal Use and Care Committee.
as §1, §2

Sprague-Dawley rats = assay: Blood pressure, left ventricular hemodynamics (Millar catheter) and heart size 4 weeks after MBG infusion; type: in vivo
Experimental: as §3, §1, §2
In the current in vivo studies we observed that MBG levels were increased in PNx- and MBG-treated rats compared with sham-operated controls. […] Using the Millar pressure/volume sensor catheter rather than echocardiography in our previous report, we observed that PNx induced decreases in end systolic volume and end diastolic volume, as well as increased ejection fraction compared with sham-operated controls. The end systolic volume and end diastolic volume were greater, and the ejection factor values were lower in PNX-IM as compared with PNx. […] Using pressure volume loops generated during vena cava occlusions, we noted that the end diastolic pressure volume relationship (an inverse measurement of passive compliance) was increased in PNx- and MBG-treated animals compared with controls, whereas […] ha a lower end diastolic pressure volume relationship than PNx.

[3] = MBG infusion, 4 weeks, mean ± SEM

Structure (SMILES): C[C@]12CC[C@H](O)C[C@@]1(O)CC[C@@H]1[C@@H]2CC[C@]2(C)[C@@H](c3ccc(=O)oc3)C[C@H]3O[C@]132 [MBG, marinobufagenin]
- Cardiac fibrosis [1]: caused cardiac fibrosis
- Collagen-1 and a smooth muscle actin staining (immunohistochemistry) ([1]; heart tissue): marked increases
- Expression of a smooth muscle actin relative to sham-operated controls (Western blot) ([1]; heart tissue): 2 to 2.5 times
- Expression of procollagin-1 relative to sham-operated controls (Western blot) ([1]; heart tissue): 2 to 2.5 times
- Plasma MBG ([2]; MBG infusion 10 μg/kg per day by minipump): 484 ± 47 pmol/L
- Plasma aldosterone ([2]; MBG infusion 10 μg/kg per day): 205 ± 35 pg/mL
- Ejection fraction (Sprague-Dawley rats; [3]): 68 ± 2 %
- End diastolic volume (Sprague-Dawley rats; [3]): 162 ± 14 µL
- End systolic volume (Sprague-Dawley rats; [3]): 60 ± 6 µL
- Heart rate (Tall cuff measurements) (Sprague-Dawley rats; [3]): 367 ± 9 bpm
- Heart weight/body weight ratio (Sprague-Dawley rats; [3]): 2.8 ± 0.1 g/kg
- Systolic blood pressure (Tall cuff measurements) (Sprague-Dawley rats; [3]): 136 ± 4 mm Hg
- EDPVRX1000 (Sprague-Dawley rats; end diastolic pressure volume relationship, MBG infusion, 4 weeks, mean ± SEM): 41 ± 6 mm Hg/μL
- τ (Sprague-Dawley rats; time constant of isovolumic relaxation, MBG infusion, 4 weeks, mean ± SEM): 11.3 ± 0.3 ms
- Ventricular myocyte cross-sectional area (Sprague-Dawley rats; trichrome images, MBG infusion vs sham): marked increases
